According to patent US11638706B2, “Methods for treating Huntington's disease” (PTC Therapeutics, Inc., priority 2015, dated 2023):

Test system: Huntingtin protein (HTT)
Experiment: Endogenous Huntingtin Protein Assay (MSD electrochemiluminescence ELISA; MW1 or MAB2166 capture, #5656S detection)
Format: cell-based, human
Procedure: The Endogenous Huntingtin Protein assay used in Example 2 was developed using the Best Pair antibodies identified in Table 2, providing highly sensitive, high-throughput detection assays for polyglutamine-expanded (mHTT) and total human HTT in multiple cell systems. The platform used for the assay is the ELISA-based Meso Scale Discovery (MSD) electrochemiluminescence assay platform.
Meso Scale Discovery (MSD) 96-well or 384-well plates were coated overnight at 4° C. with MW1 (expanded polyglutamine) or MAB2166 monoclonal antibody (for capture) at a concentration of 1 μg/mL in PBS (30 μL per well). Plates were then washed three times with 300 μL wash buffer (0.05% Tween-20 in PBS) and blocked (100 μL blocking buffer; 5% BSA in PBS) for 4-5 hours at room temperature with rotational shaking and then washed three times with wash buffer.
Samples (25 μL) were transferred to the antibody-coated MSD plate and incubated overnight at 4° C. After removal of the lysates, the plate was washed three times with wash buffer, and 25 μL of #5656S (Cell signaling; rabbit monoclonal) secondary antibody (diluted to 0.25 μg/mL in 0.05% Tween-20 in blocking buffer) was added to each well and incubated with shaking for 1 Hour at room temperature. Following incubation with the secondary antibody, the wells were rinsed with wash buffer after which 25 μL of goat anti-rabbit SULFO TAG secondary detection antibody (required aspect of the MSD system) (diluted to 0.25 μg/mL in 0.05% Tween-20 in blocking buffer) was added to each well and incubated with shaking for 1 hour at room temperature. After rinsing three times with wash buffer, 150 μL of read buffer T with surfactant (MSD) were added to each empty well, and the plate was imaged on a SI 6000 imager (MSD) according to manufacturers' instructions provided for 96- or 384-well plates.

Compound	IC50
3-[2-methoxy-4-(1H-pyrazol-1-yl)phenyl]-6-[(2,2,6,6-tetramethylpiperidin-4-yl)oxy]pyridazine [Cpd 447]	3000 to 9000 nM
5-(3,5-dimethyl-1H-pyrazol-4-yl)-2-{6-[(2,2,6,6-tetramethylpiperidin-4-yl)oxy]pyridazin-3-yl}phenol [Cpd 451]	3000 to 9000 nM
5-(5-methyl-1H-pyrazol-4-yl)-2-{6-[(2,2,6,6-tetramethylpiperidin-4-yl)oxy]pyridazin-3-yl}phenol [Cpd 418]	≤ 100 nM
CN(c1ccc(-c2ccc3nccn3c2)nn1)C1CC(C)(C)NC(C)(C)C1 [Cpd 16, 6-(imidazo[1,2-a]pyridin-6-yl)-N-methyl-N-(2,2,6,6-tetramethylpiperidin-4-yl)pyridazin-3-amine]	3000 to 9000 nM
CN(c1ccc(-c2cc3ccccc3cc2O)nn1)C1CC(C)(C)NC(C)(C)C1 [Cpd 26, 3-(6-(methyl(2,2,6,6-tetramethylpiperidin-4-yl)amino)pyridazin-3-yl)naphthalen-2-ol]	100 to 500 nM
CC1(C)CC(Oc2ccc(-c3cc4ccccc4cc3O)nn2)CC(C)(C)N1 [Cpd 31, 3-(6-((2,2,6,6-tetramethylpiperidin-4-yl)oxy)pyridazin-3-yl)naphthalen-2-ol]	100 to 500 nM
CN(c1ccc(-c2ccc(C#N)cc2O)nn1)C1CC(C)(C)NC(C)(C)C1 [Cpd 39, 3-hydroxy-4-(6-(methyl(2,2,6,6-tetramethylpiperidin-4-yl)amino)pyridazin-3-yl)benzonitrile]	3000 to 9000 nM
Cc1cnc(-c2ccc(-c3ccc(N(C)C4CC(C)(C)NC(C)(C)C4)nn3)c(O)c2)o1 [Cpd 44, 5-(5-methyl-oxazol-2-yl)-2-(6-(methyl-(2,2,6,6-tetramethylpiperidin-4-yl)-amino)-pyridazin-3-yl)phenol]	≤ 100 nM
CN(c1ccc(-c2ccc(-n3ccnc3)cc2O)nn1)C1CC(C)(C)NC(C)(C)C1 [Cpd 46, 5-(1H-imidazol-1-yl)-2-(6-(methyl(2,2,6,6-tetramethylpiperidin-4-yl)amino)pyridazin-3-yl)phenol]	≤ 100 nM
CN(c1ccc(-c2ccc(-n3cc(N)cn3)cc2O)nn1)C1CC(C)(C)NC(C)(C)C1 [Cpd 47, 5-(4-amino-1H-pyrazole-1-yl)-2-(6-(methyl(2,2,6,6-tetramethylpiperidin-4-yl)amino)pyridazin-3-yl)phenol]	100 to 500 nM
CN(c1ccc(-c2ccc(-c3cn[nH]c3)cc2O)nn1)C1CC(C)(C)NC(C)(C)C1 [Cpd 48, 2-(6-(methyl(2,2,6,6-tetramethylpiperidin-4-yl)amino)pyridazin-3-yl)-5-(1H-pyrazol-4-yl)phenol]	≤ 100 nM
CN(c1ccc(-c2ccc(-c3cnn(C)c3)cc2O)nn1)C1CC(C)(C)NC(C)(C)C1 [Cpd 51, 2-(6-(methyl(2,2,6,6-tetramethylpiperidin-4-yl)amino)pyridazin-3-yl)-5-(1-methyl-1H-pyrazol-4-yl)phenol]	≤ 100 nM
CC1(C)CC(Oc2ccc(-c3ccc(-n4cccn4)cc3O)nn2)CC(C)(C)N1 [Cpd 63, 5-1H-pyrazol-1-yl-2-(6-(2,2,6,6-tetramethylpiperidin-4-yl-oxy)-pyridazin-3-yl)phenol]	≤ 100 nM
CC1(C)CC(Oc2ccc(-c3ccc(-c4cn[nH]c4)cc3O)nn2)CC(C)(C)N1 [Cpd 64, 5-(1H-pyrazol-4-yl)-2-(6-((2,2,6,6-tetramethylpiperidin-4-yl)oxy)pyridazin-3-yl)phenol]	≤ 100 nM
CN(c1ccc(-c2ccc(-c3ccnc(O)c3)cc2O)nn1)C1CC(C)(C)NC(C)(C)C1 [Cpd 170, 4-(3-hydroxy-4-(6-(methyl(2,2,6,6-tetramethylpiperidin-4-yl)amino)pyridazin-3-yl)phenyl)pyridin-2-ol]	≤ 100 nM
CC1(C)CC(Oc2ccc(-c3ccc(-c4ccnc(O)c4)cc3O)nn2)CC(C)(C)N1 [Cpd 176, 4-(3-hydroxy-4-(6-((2,2,6,6-tetramethylpiperidin-4-yl)oxy)pyridazin-3-yl)phenyl)pyridin-2-ol]	≤ 100 nM
Oc1cc(-c2cn[nH]c2)ccc1-c1ccc(N2C[C@H]3CNC[C@H]3C2)nn1 [Cpd 200, 2-(6-((3aR,6aS)-hexahydropyrrolo[3,4-c]pyrrol-2(1H)-yl)pyridazin-3-yl)-5-(1H-pyrazol-4-yl)phenol]	≤ 100 nM
CN(c1ccc(-c2cc3cccnc3cc2O)nn1)C1CC(C)(C)NC(C)(C)C1 [Cpd 207, 6-(6-(methyl(2,2,6,6-tetramethylpiperidin-4-yl)amino)pyridazin-3-yl)quinolin-7-ol]	100 to 500 nM
CN(c1ccc(-c2cc3cnccc3cc2O)nn1)C1CC(C)(C)NC(C)(C)C1 [Cpd 212, 7-(6-(methyl(2,2,6,6-tetramethylpiperidin-4-yl)amino)pyridazin-3-yl)isoquinolin-6-ol]	≤ 100 nM
CN(c1ccc(-c2cc3ccncc3cc2O)nn1)C1CC(C)(C)NC(C)(C)C1 [Cpd 218, 6-(6-(methyl(2,2,6,6-tetramethylpiperidin-4-yl)amino)pyridazin-3-yl)isoquinolin-7-ol]	≤ 100 nM

Compound	IC50
CN(c1ccc(-c2cc3cncnc3cc2O)nn1)C1CC(C)(C)NC(C)(C)C1 [Cpd 258, 6-(6-(methyl(2,2,6,6-tetramethylpiperidin-4-yl)amino)pyridazin-3-yl)quinazolin-7-ol]	100 to 500 nM
COc1cc(-c2cn[nH]c2)ccc1-c1nnc(N(C)C2CC(C)(C)NC(C)(C)C2)s1 [Cpd 307]	100 to 500 nM
CN(c1nnc(-c2ccc(-c3cnn(C)c3)cc2O)s1)C1CC(C)(C)NC(C)(C)C1 [Cpd 315]	≤ 100 nM
CN(c1nnc(-c2ccc(-c3ccn(C)c(=O)c3)cc2O)s1)C1CC(C)(C)NC(C)(C)C1 [Cpd 318]	≤ 100 nM
CN(c1nnc(-c2ccc(-c3cn[nH]c3)c(F)c2F)s1)C1CC(C)(C)NC(C)(C)C1 [Cpd 348]	≤ 100 nM
CN(c1nnc(-c2cc(F)c(-c3cn[nH]c3)cc2F)s1)C1CC(C)(C)NC(C)(C)C1 [Cpd 350]	≤ 100 nM
CN(c1nnc(-c2c(F)cc(-c3cn[nH]c3)cc2F)s1)C1CC(C)(C)NC(C)(C)C1 [Cpd 352]	100 to 500 nM
CN(c1nnc(-c2ccc(-c3cn[nH]c3)cc2O)s1)C1CC(C)(C)NC(C)(C)C1 [Cpd 393]	≤ 100 nM
CN(c1ccc(-c2ccc(-c3cn[nH]c3)cc2O)nn1)C1C[C@H]2CC[C@@H](C1)N2 (stereo partly drawn) [Cpd 411, 2-{6-[(1R,5S)-8-azabicyclo[3.2.1]oct-3-yl(methyl)amino]pyridazin-3-yl}-5-(1H-pyrazol-4-yl)phenol]	≤ 100 nM
Oc1cc(-c2cn[nH]c2)ccc1-c1ccc(NC2C[C@H]3CC[C@@H](C2)N3)nn1 (stereo partly drawn) [Cpd 412, 2-[6-((1R,5S)-8-azabicyclo[3.2.1]oct-3-ylamino)pyridazin-3-yl]-5-(1H-pyrazol-4-yl)phenol]	≤ 100 nM
CC1(C)CC(Nc2ccc(-c3ccc(-c4cn[nH]c4)cc3O)nn2)CC(C)(C)N1 [Cpd 413, 5-(1H-pyrazol-4-yl)-2-{6-[(2,2,6,6-tetramethylpiperidin-4-yl)amino]pyridazin-3-yl}phenol]	≤ 100 nM
Cn1cc(-c2ccc(-c3ccc(OC4CC(C)(C)NC(C)(C)C4)nn3)c(O)c2)cn1 [Cpd 414, 5-(1-methyl-1H-pyrazol-4-yl)-2-{6-[(2,2,6,6-tetramethylpiperidin-4-yl)oxy]pyridazin-3-yl}phenol]	≤ 100 nM
Oc1cc(-c2cn[nH]c2)ccc1-c1ccc(OC2C[C@H]3CC[C@@H](C2)N3)nn1 (stereo partly drawn) [Cpd 415, 2-[6-((1R,5S)-8-azabicyclo[3.2.1]oct-3-yloxy)pyridazin-3-yl]-5-(1H-pyrazol-4-yl)phenol]	≤ 100 nM
Cc1[nH]ncc1-c1ccc(-c2ccc(N(C)C3CC(C)(C)NC(C)(C)C3)nn2)c(O)c1 [Cpd 416, 5-(5-methyl-1H-pyrazol-4-yl)-2-{6-[methyl(2,2,6,6-tetramethylpiperidin-4-yl)amino]pyridazin-3-yl}phenol]	≤ 100 nM
CC1(C)CC(Oc2ccc(-c3ccc(-n4ccnc4)cc3O)nn2)CC(C)(C)N1 [Cpd 417, 5-(1H-imidazol-1-yl)-2-{6-[(2,2,6,6-tetramethylpiperidin-4-yl)oxy]pyridazin-3-yl}phenol]	≤ 100 nM
CN(c1ccc(-c2ccc(-n3cc([N+](=O)[O-])cn3)cc2O)nn1)C1CC(C)(C)NC(C)(C)C1 [Cpd 419, 2-{6-[methyl(2,2,6,6-tetramethylpiperidin-4-yl)amino]pyridazin-3-yl}-5-(4-nitro-1H-pyrazol-1-yl)phenol]	≤ 100 nM
COc1cc(-n2cc([N+](=O)[O-])cn2)ccc1-c1ccc(N(C)C2CC(C)(C)NC(C)(C)C2)nn1 [Cpd 420, 6-[2-methoxy-4-(4-nitro-1H-pyrazol-1-yl)phenyl]-N-methyl-N-(2,2,6,6-tetramethylpiperidin-4-yl)pyridazin-3-amine]	≤ 100 nM
CC1(C)CC(Oc2ccc(-c3ccc(-n4cc(N)cn4)cc3O)nn2)CC(C)(C)N1 [Cpd 421, 5-(4-amino-1H-pyrazol-1-yl)-2-{6-[(2,2,6,6-tetramethylpiperidin-4-yl)oxy]pyridazin-3-yl}phenol]	≤ 100 nM
CN1CC=C(c2ccc(-c3ccc(-c4cn[nH]c4)cc3O)nn2)CC1 [Cpd 422, 2-[6-(1-methyl-1,2,3,6-tetrahydropyridin-4-yl)pyridazin-3-yl]-5-(1H-pyrazol-4-yl)phenol]	≤ 100 nM
